Assay results taken from the NIST ThermoML archive (doi:10.1007/s10765-016-2109-2).

Assay: molar heat capacity at saturation pressure
Settings: Liquid, Vacuum adiabatic calorimetry

CCCCCC[n+]1ccn(C)c1.O=S(=O)([N-]S(=O)(=O)C(F)(F)F)C(F)(F)F
Settings	molar heat capacity [J/K/mol]
288.72 K	599.09
288.87 K	602.23
289.04 K	592.83
289.17 K	597.31
289.3 K	604.91
289.44 K	590.59
289.57 K	596.41
289.7 K	599.99
289.83 K	601.78
297.45 K	599.54
297.76 K	608.04
297.89 K	604.46
298.02 K	598.65
298.15 K	596.41
298.28 K	606.25
298.41 K	601.78
298.53 K	599.99
298.66 K	603.57
301.64 K	606.7
301.75 K	608.94
301.88 K	612.52
302.01 K	606.7
302.13 K	613.41
302.26 K	605.81
304.3 K	608.49
304.69 K	603.12
304.82 K	606.7
304.95 K	612.52
305.08 K	604.46
305.2 K	610.73
305.33 K	607.6
305.46 K	613.41
305.59 K	609.39
314.15 K	619.68
314.57 K	615.2
314.69 K	607.6
314.82 K	616.99
314.94 K	611.62
315.07 K	612.52
315.2 K	618.33
315.32 K	614.75
315.45 K	608.94
320.89 K	620.12
321.17 K	622.81
321.3 K	614.75
321.42 K	621.02
321.55 K	613.41
321.67 K	616.99
321.79 K	616.1
321.92 K	619.23
322.04 K	622.36
322.16 K	621.02
322.29 K	618.33
322.41 K	623.7
323.89 K	624.15
324.15 K	620.57
324.28 K	625.49
324.4 K	627.73
324.52 K	629.07
324.65 K	621.47
324.77 K	622.81
324.89 K	617.89
325.02 K	621.02
325.14 K	625.05
325.24 K	622.36
325.26 K	623.7
333.63 K	634.44
333.82 K	633.99
333.94 K	626.83
334.06 K	631.76
334.18 K	629.07
334.3 K	632.65
334.42 K	636.68
334.54 K	633.1
334.66 K	627.28
334.79 K	631.31
334.91 K	629.97
339.73 K	638.92
339.83 K	637.13
339.95 K	634.89
340.03 K	643.39
340.15 K	635.78
340.27 K	640.7
340.39 K	642.05
340.51 K	638.47
344.34 K	641.6
344.46 K	645.63
344.58 K	642.49
344.7 K	644.73
344.82 K	639.36
344.93 K	648.31
345.05 K	647.42
345.17 K	645.18
345.29 K	638.47
345.41 K	643.84
348.64 K	645.18
348.76 K	643.84
348.88 K	648.31
348.99 K	646.97
349.11 K	649.65
349.23 K	648.76
349.35 K	644.73
349.47 K	647.42
349.58 K	643.39
349.65 K	648.31
349.7 K	645.63
349.82 K	643.39
349.94 K	645.63
350.05 K	644.73
350.17 K	646.97
350.29 K	647.86
350.36 K	647.42
